Molecules are shown by their SMILES.

9 compounds from ChEMBL document CHEMBL1155342, “Design, synthesis and analgesic properties of novel conformationally-restricted N-acylhydrazones (NAH)” (2009) can be followed below.

Assay [1] relates to Mus musculus. Briefly: Antinociceptive activity in mouse assessed as inhibition of acetic acid-induced abdominal constrictions at 100 umol/kg, po relative to untreated control. In kind it is functional. As to conditions: Abdomen.
The subject of assay [2] is Mus musculus. The assay is described as follows: Antinociceptive activity in po dosed mouse assessed as inhibition of acetic acid-induced abdominal constrictions. The following applies: Abdomen. The class given is functional.

As a reminder, the inhibition in vivo is the change of the read-out against control, counted positive when it falls. The ED50 is the midpoint of the dose-response relation. For the compound `COc1ccc2c(=O)n(/N=C/c3ccccc3)cnc2c1`, the inhibition in vivo at 100 µmol/kg with Mus musculus [1] came out at 48%. Moreover, the ED50 in the assay on Mus musculus [2] came to 4.2 µmol/kg. In the case of `COc1ccc(C(=O)n2nc(-c3ccccc3)cc2C)cc1`, the inhibition in vivo at 100 µmol/kg in the assay with Mus musculus [1] is 50%. Besides, the ED50 with Mus musculus [2] is 5.1 µmol/kg. Regarding `COc1ccc(C(=O)N/N=C/c2ccccc2)cc1`, the inhibition in vivo at 100 µmol/kg with Mus musculus [1] worked out at 54%. In the assay on Mus musculus [2], the ED50 amounted to 9.2 µmol/kg. Take `COc1ccc2c(c1)CC(c1ccccc1)=NNC2=O`: the inhibition in vivo at 100 µmol/kg in the assay with Mus musculus [1] stood at 36%. Take `COc1ccc2c(c1)c(CC(=O)O)c(C)n2C(=O)c1ccc(Cl)cc1` [INDOMETHACIN]: the inhibition in vivo at 100 µmol/kg in the assay with Mus musculus [1] is 42%. Besides, the ED50 in the assay with Mus musculus [2] stood at 56.2 µmol/kg. `CC(=O)Nc1ccc(O)cc1` [ACETAMINOPHEN]: the inhibition in vivo at 100 µmol/kg in the assay with Mus musculus [1] was found to be 36%. In the case of `COc1ccc(-c2nnc3ccc(-c4ccccc4)nn23)cc1`, in the assay on Mus musculus [1], the inhibition in vivo at 100 µmol/kg came to 22%. Turning to `COC1=CC2N=CN=C(N/N=C/c3ccccc3)C2C=C1` (centres undefined), the inhibition in vivo at 100 µmol/kg in the assay on Mus musculus [1] was determined as 28%.

In the case of `COc1ccc(C(=O)N(C)/N=C/c2ccccc2)cc1`, in the assay on Mus musculus [1], the inhibition in vivo at 100 µmol/kg was found to be 50%. In the assay with Mus musculus [2], the ED50 is 5.9 µmol/kg.
